This passage reports T/C results from PubChem BioAssay AID330 (DTP/NCI, 2004).

Values joined by “and” are separate entries in the source; they are usually repeats but may differ in a detail not shown here. Equal values may be shown once. Toxic doses and inconclusive results are not listed.

The subject of this experiment is P388 leukemia ip, CD2F1 mice, survival T/C. The experiment is described as follows: NCI In Vivo Anticancer Drug Screen. Data for tumor model P388 Leukemia (intraperitoneal) in CD2F1 (CDF1) mice. As to conditions: endpoint: median survival time, higher = longer survival. An outline of the steps: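 Mice carrying the transplanted tumor received test compound or vehicle. Survival was recorded in each group, and the value is the treated-group measurement divided by that of the vehicle-treated control group.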

Where [1] appears, read: dose: 25.0 mg/kg/injection, schedule: Q01DX005 (ip), vehicle: saline with Tween-80.
Setting [2] is: dose: 50.0 mg/kg/injection, schedule: Q01DX005 (ip), vehicle: saline with Tween-80.
The mark [3] stands for this setting: dose: 100.0 mg/kg/injection, schedule: Q01DX005 (ip), vehicle: saline with Tween-80.
The mark [4] stands for this setting: dose: 200.0 mg/kg/injection, schedule: Q01DX005 (ip), vehicle: saline with Tween-80.
[5] abbreviates: dose: 60.0 mg/kg/injection, schedule: Q01DX005 (ip), vehicle: saline with Tween-80.
[6] abbreviates: dose: 120.0 mg/kg/injection, schedule: Q01DX005 (ip), vehicle: saline with Tween-80.
Where [7] appears, read: dose: 240.0 mg/kg/injection, schedule: Q01DX005 (ip), vehicle: saline with Tween-80.
Setting [8] is: dose: 25.0 mg/kg/injection, schedule: Q01DX009 (ip), vehicle: saline with Tween-80.
The mark [9] stands for this setting: dose: 50.0 mg/kg/injection, schedule: Q01DX009 (ip), vehicle: saline with Tween-80.
Where [10] appears, read: dose: 100.0 mg/kg/injection, schedule: Q01DX009 (ip), vehicle: saline with Tween-80.
Where [11] appears, read: dose: 200.0 mg/kg/injection, schedule: Q01DX009 (ip), vehicle: saline with Tween-80.
[12] abbreviates: dose: 50.0 mg/kg/injection, schedule: Q01DX009 (ip), vehicle: Klucel (hydroxypropylcellulose) (HPC).
The mark [13] stands for this setting: dose: 100.0 mg/kg/injection, schedule: Q01DX009 (ip), vehicle: Klucel (hydroxypropylcellulose) (HPC).
Setting [14] is: dose: 200.0 mg/kg/injection, schedule: Q01DX009 (ip), vehicle: Klucel (hydroxypropylcellulose) (HPC).
[15] abbreviates: dose: 12.5 mg/kg/injection, schedule: Q01DX009 (ip), vehicle: Klucel (hydroxypropylcellulose) (HPC).
[16] abbreviates: dose: 25.0 mg/kg/injection, schedule: Q01DX009 (ip), vehicle: Klucel (hydroxypropylcellulose) (HPC).

As to `O=C1OC(=O)C2C3C=CC(O3)C12` (stereo not drawn), the T/C (dose: 15.0 mg/kg/injection, schedule: Q01DX005 (ip), vehicle: saline) is 100 % of control; the T/C (dose: 30.0 mg/kg/injection, schedule: Q01DX005 (ip), vehicle: saline) was 91 % of control; the T/C (dose: 60.0 mg/kg/injection, schedule: Q01DX005 (ip), vehicle: saline) is 87 % of control and 89 % of control.
As to `Cn1c(=O)c2nncnc2n(C)c1=O`, the T/C runs as follows: under setting [1], 96 % of control; under setting [2], 93 % of control; under setting [3], 93 % of control; under setting [4], 94 % of control.
For `COc1ccc2ncc(CO)c(CO)c2c1`, for the setting “dose: 200.0 mg/kg/injection, schedule: Q01DX005 (ip), vehicle: Klucel (hydroxypropylcellulose) (HPC)”, the T/C was 100 % of control.
Regarding `Cc1cc(Cl)ccc1NC(=O)C1C(=O)CC(C)(C)CC1=O`, the T/C is 93 % of control under setting [2], 101 % of control under setting [3] and 111 % of control under setting [4].
For the compound `COc1ccc(CSC(=S)Nc2cc(C)c(C)cc2Br)cc1`, the T/C was 100 % of control (dose: 50.0 mg/kg/injection, schedule: Q01DX009 (ip), vehicle: suspension in saline); 97 % of control (dose: 100.0 mg/kg/injection, schedule: Q01DX009 (ip), vehicle: suspension in saline); 93 % of control (dose: 200.0 mg/kg/injection, schedule: Q01DX009 (ip), vehicle: suspension in saline).
Turning to `COc1ccc2oc3cc(Cl)ccc3c(=O)c2c1`, the T/C was 118 % of control under setting [5], 101 % of control under setting [6] and 100 % of control under setting [7].
On to `CC1(C)C[C@H]2C=C(C=O)[C@]34C[C@]3(C(=O)OC4O)[C@H]2C1` (stereo partly drawn), for which the T/C is 103 % of control (dose: 0.18 mg/kg/injection, schedule: Q01DX009 (ip), vehicle: Klucel (hydroxypropylcellulose) (HPC)); 111 % of control and 120 % of control (dose: 0.78 mg/kg/injection, schedule: Q01DX009 (ip), vehicle: Klucel (hydroxypropylcellulose) (HPC)); 106 % of control and 117 % of control (dose: 1.56 mg/kg/injection, schedule: Q01DX009 (ip), vehicle: Klucel (hydroxypropylcellulose) (HPC)).
For `O=C(O)/C=N/NS(=O)(=O)c1ccc(Cl)cc1`, the T/C is, setting by setting: (dose: 6.25 mg/kg/injection, schedule: Q01DX009 (ip), vehicle: other) 101 % of control; (dose: 12.5 mg/kg/injection, schedule: Q01DX009 (ip), vehicle: other) 122 % of control; (dose: 50.0 mg/kg/injection, schedule: Q01DX009 (ip), vehicle: other) 159 % of control; (dose: 100.0 mg/kg/injection, schedule: Q01DX009 (ip), vehicle: other) 99 % of control.
Consider `N#CCc1ccccc1C#N`, for which the T/C was 100 % of control (dose: 12.5 mg/kg/injection, schedule: Q01DX005 (ip), vehicle: saline with Tween-80); 99 % of control under setting [1]; 101 % of control under setting [2].
Turning to `OCC12COCN1COC2`, the T/C (dose: 50.0 mg/kg/injection, schedule: Q01DX009 (ip), vehicle: saline) was 106 % of control and 92 % of control; the T/C (dose: 100.0 mg/kg/injection, schedule: Q01DX009 (ip), vehicle: saline) was 106 % of control and 111 % of control; the T/C (dose: 200.0 mg/kg/injection, schedule: Q01DX009 (ip), vehicle: saline) was 108 % of control and 118 % of control; the T/C (dose: 400.0 mg/kg/injection, schedule: Q01DX009 (ip), vehicle: saline) is 123 % of control.
Regarding `COC1C=COC2(C)Oc3c(C)c(O)c4c(O)c(c(C5SCCS5)c(O)c4c3C2=O)NC(=O)/C(C)=C\C=CC(C)C(O)C(C)C(O)C(C)C(OC(C)=O)C1C` (stereo not drawn), the T/C is, setting by setting: under setting [8], 100 % of control and 92 % of control; under setting [9], 105 % of control and 106 % of control and 92 % of control; under setting [10], 100 % of control and 108 % of control; under setting [11], 109 % of control and 111 % of control and 115 % of control.
With `C=C(C)C(O)C(O)c1cc2ccc(=O)oc2cc1OC` (stereo not drawn), the T/C reads like this: (dose: 12.5 mg/kg/injection, schedule: Q01DX009 (ip), vehicle: saline with Tween-80) 99 % of control; under setting [8], 99 % of control; under setting [9], 99 % of control; under setting [10], 107 % of control.
For the compound `CN1C(=O)CC(=O)N(C)P1(=O)Oc1ccccc1`, the T/C (dose: 100.0 mg/kg/injection, schedule: Q04DX002 (ip), vehicle: saline) was 101 % of control; the T/C (dose: 200.0 mg/kg/injection, schedule: Q04DX002 (ip), vehicle: saline) is 101 % of control; the T/C (dose: 400.0 mg/kg/injection, schedule: Q04DX002 (ip), vehicle: saline) is 101 % of control.
As for `Clc1nc(Cl)c2c3c(sc2n1)CCCC3`, the T/C was 91 % of control (dose: 60.0 mg/kg/injection, schedule: Q01DX005 (ip), vehicle: Klucel (hydroxypropylcellulose) (HPC)); 90 % of control (dose: 120.0 mg/kg/injection, schedule: Q01DX005 (ip), vehicle: Klucel (hydroxypropylcellulose) (HPC)); 99 % of control (dose: 240.0 mg/kg/injection, schedule: Q01DX005 (ip), vehicle: Klucel (hydroxypropylcellulose) (HPC)).
For the compound `C=CC(C)(O)/C=C/C=C(\C)C(CC1OC1(C)C)OC(=O)/C(C)=C\C` (stereo not drawn), the T/C runs as follows: under setting [12], 95 % of control; under setting [13], 107 % of control.
For `O=c1[nH]c(=O)c2ncsc2[nH]1`, the T/C is 100 % of control (dose: 25.0 mg/kg/injection, schedule: Q01DX001 (ip), vehicle: saline with Tween-80); 100 % of control and 104 % of control (dose: 50.0 mg/kg/injection, schedule: Q01DX001 (ip), vehicle: saline with Tween-80); 100 % of control and 113 % of control (dose: 100.0 mg/kg/injection, schedule: Q01DX001 (ip), vehicle: saline with Tween-80); 118 % of control (dose: 200.0 mg/kg/injection, schedule: Q01DX001 (ip), vehicle: saline with Tween-80).
As to `O=C(NC(=O)c1ccccc1F)Nc1ccc(Cl)cc1`, the T/C is 101 % of control under setting [12], 100 % of control under setting [13] and 91 % of control under setting [14].
Consider `O=C(CNC(=O)Nc1cccc(C(F)(F)F)c1)NNC(=O)Nc1ccc(Cl)c([N+](=O)[O-])c1`, for which the T/C runs as follows: under setting [5], 92 % of control; under setting [6], 87 % of control; under setting [7], 92 % of control.
As to `CS(=O)(=O)c1nc2ccc(N3C(=O)c4ccccc4C3=O)cc2s1`, the T/C under setting [15] was 108 % of control; the T/C under setting [16] was 107 % of control; the T/C under setting [12] is 110 % of control and 89 % of control; the T/C under setting [14] is 105 % of control.
With `O=c1[nH]cnc2c1nc(Br)n2C1OC(CO)C(O)C1O` (stereo not drawn), the T/C is 94 % of control (dose: 6.25 mg/kg/injection, schedule: Q01DX009 (ip), vehicle: Klucel (hydroxypropylcellulose) (HPC)); 94 % of control under setting [15]; 94 % of control under setting [16]; 97 % of control under setting [12]; 94 % of control under setting [13].
For `CCCCCCCNC1CCCc2cc(OC)ccc21` (stereo not drawn), the T/C runs as follows: (dose: 50.0 mg/kg/injection, schedule: Q04DX003 (ip), vehicle: saline) 113 % of control; (dose: 100.0 mg/kg/injection, schedule: Q04DX003 (ip), vehicle: saline) 99 % of control.
With `CCCOc1cc2c(cc1C(C)c1ccccc1)OCO2` (stereo not drawn), the T/C was 101 % of control under setting [2], 95 % of control under setting [3] and 96 % of control under setting [4].
With `C=CCOC(=O)C1=C(O[Si]C(C)(C)C)CCCC1`, the T/C under setting [9] was 96 % of control, the T/C under setting [10] was 99 % of control and the T/C under setting [11] was 109 % of control.
Regarding `COc1ccc(OC)c(CCc2cc(OC)ccc2OC)c1`, the T/C runs as follows: (dose: 0.78 mg/kg/injection, schedule: Q01DX009 (ip), vehicle: DMSO) 88 % of control; (dose: 6.25 mg/kg/injection, schedule: Q01DX009 (ip), vehicle: DMSO) 92 % of control; (dose: 25.0 mg/kg/injection, schedule: Q01DX009 (ip), vehicle: DMSO) 94 % of control; (dose: 50.0 mg/kg/injection, schedule: Q01DX009 (ip), vehicle: DMSO) 109 % of control.
